The numbers were not newly measured in US11504387B2, “Bioconversion of oleuropein” (SOCIETE DES PRODUITS NESTLE S.A., priority 2017, dated 2022), which cites them from elsewhere.

The conditions of data set [1]: compared with hydroxytyrosol.
The conditions of data set [2]: upper gastrointestinal tract and small intestine.
For data set [3] the following is noted: compared to caffeic acid, oleuropein and hydroxytyrosol.
For data set [4] the following is noted: in vivo.

Consider hydroxytyrosol acetate, for which, in data set [1], the “solubility in the lipophilic phases” value is reported as “more soluble in the lipophilic phases than hydroxytyrosol”.
In the case of `C/C=C1/[C@H](O[C@@H]2O[C@H](CO)[C@@H](O)[C@H](O)[C@H]2O)OC=C(C(=O)OC)[C@H]1CC(=O)OCCc1ccc(O)c(O)c1` [oleuropein], the resistance to degradation result in data set [2] was “resists degradation in the upper gastrointestinal tract and the small intestine”.
In the case of `CC=C1C(O)OC=C(C(=O)OC)C1CC(=O)OCCc1ccc(O)c(O)c1` (stereo not shown) [oleuropein aglycone, 3,4-dihydroxyphenylethanol-elenolic acid], in data set [3], the antioxidant activity result is “comparable to that of caffeic acid, oleuropein and hydroxytyrosol”. Besides, the “clearance from the plasma” value in data set [4] was “slower clearance from the plasma compared with hydroxytyrosol and oleuropein”.
